Experimental data reported in patent publication US20240246979A1, “cGAS INHIBITORS” (Eli Lilly and Company, priority 2022, published 2024).

Columns and labels:
cGAS [1] = molecular target: T1, cGAS (Homo sapiens, UniProt Q8N884); experiment: In vitro inhibition assay of cGAS activity (cGAMP production, RapidFire mass spectrometry); assay type: biochemical; design: Insert cDNA encoding full-length of human cGAS; His6; made in house; host or cells: E. coli BL21(DE3); conditions: 10 nM recombinant human cGAS, 60 nM 75-bp dsDNA, 50 μM ATP, 50 μM GTP, 3 hrs
T1 sequence (Q8N884 whole entry): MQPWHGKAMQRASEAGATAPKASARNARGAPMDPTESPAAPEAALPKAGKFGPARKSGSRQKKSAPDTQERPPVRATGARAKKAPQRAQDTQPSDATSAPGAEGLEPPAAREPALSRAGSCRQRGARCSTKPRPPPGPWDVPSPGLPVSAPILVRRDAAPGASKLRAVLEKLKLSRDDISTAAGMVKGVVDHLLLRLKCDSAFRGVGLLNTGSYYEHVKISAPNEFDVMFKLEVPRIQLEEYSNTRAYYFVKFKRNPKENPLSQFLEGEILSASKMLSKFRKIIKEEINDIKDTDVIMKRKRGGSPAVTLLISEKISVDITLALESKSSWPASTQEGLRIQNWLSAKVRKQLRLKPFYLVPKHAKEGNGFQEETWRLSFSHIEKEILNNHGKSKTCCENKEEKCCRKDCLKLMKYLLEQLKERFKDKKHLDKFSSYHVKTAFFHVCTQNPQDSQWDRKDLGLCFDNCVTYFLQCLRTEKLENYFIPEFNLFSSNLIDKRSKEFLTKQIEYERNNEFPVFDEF
Summary of the method: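 His6-tagged full-length human cGAS (10 nM, E. coli-expressed) was incubated for 3 hrs at ambient temperature with 60 nM 75-bp dsDNA, 50 μM ATP and 50 μM GTP in Tris pH 7.5/MgCl2 buffer with compound dilutions. cGAMP was quantified by RapidFire mass spectrometry against an internal standard, and IC50 was obtained by 4-parameter logistic fit.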

cGAS [2] = molecular target: T1, cGAS; experiment: Cellular assay to measure cGAS activity (IFNb AlphaLISA in THP1 cells stimulated by RDG-Adenovirus-GFP); assay type: cell-based; design: host or cells: THP1 cells differentiated with PMA and stimulated with RDG-Adenovirus-GFP; conditions: PMA-differentiated THP1 cells, RDG-Adenovirus-GFP at 1000 MOI; inhibition of IFNb production as marker for cGAS activity
Summary of the method: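 PMA-differentiated THP1 cells were infected with RDG-Adenovirus-GFP at 1000 MOI for 4 h, then exposed overnight to test compounds. IFNb in the supernatant was quantified by AlphaLISA as a cGAS activity marker, and IC50 was fitted with a 4-parameter logistic equation.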

Compound	IC50 (cGAS [1])	IC50 (cGAS [2])
CC1C(=O)NCCc2c1c1c(NCc3cnc[nH]3)cc(Cl)c(Cl)c1n2C (stereo not drawn) [Example 91, 10-(((1H-Imidazol-5-yl)methyl)amino)-7,8-dichloro-1,6-dimethyl-3,4,5,6-tetrahydroazepino[4,5-b]indol-2(1H)-one]	20.7 nM	1190 nM
COCCNc1cc(Cl)c(Cl)c2c1c1c(n2C)CCNC(=O)C1C (stereo not drawn) [Example 96, 7,8-Dichloro-10-((2-methoxyethyl)amino)-1,6-dimethyl-3,4,5,6-tetrahydroazepino[4,5-b]indol-2(1H)-one]	18.6 nM	> 10000 nM
COCCOc1cc(Cl)c(Cl)c2c1c1c(n2C)CCNC(=O)C1C (stereo not drawn) [Example 97, 7,8-Dichloro-10-(2-methoxyethoxy)-1,6-dimethyl-3,4,5,6-tetrahydroazepino[4,5-b]indol-2(1H)-one]	18 nM	1150 nM
Cn1ncc(-c2cc(Cl)c(Cl)c3[nH]c4c(c23)CC(=O)NCC4CC(C)(C)O)n1 (stereo not drawn) [Example 102, 7,8-Dichloro-5-(2-hydroxy-2-methylpropyl)-10-(2-methyl-2H-1,2,3-triazol-4-yl)-3,4,5,6-tetrahydroazepino[4,5-b]indol-2(1H)-one]	23.2 nM	727 nM
Cn1ncc(-c2cc(Cl)c(Cl)c3c2c2c(n3C)C(CC(C)(C)O)CNC(=O)C2)n1 (stereo not drawn) [Example 105, 7,8-Dichloro-5-(2-hydroxy-2-methylpropyl)-6-methyl-10-(2-methyl-2H-1,2,3-triazol-4-yl)-3,4,5,6-tetrahydroazepino[4,5-b]indol-2(1H)-one]	38.8 nM	3250 nM
Cn1ncc(-c2cc(Cl)c(Cl)c3[nH]c4c(c23)CC(=O)NCC4CCNCC(F)(F)F)n1 (stereo not drawn) [Example 112, 7,8-Dichloro-10-(2-methyl-2H-1,2,3-triazol-4-yl)-5-(2-((2,2,2-trifluoroethyl)amino)ethyl)-3,4,5,6-tetrahydroazepino[4,5-b]indol-2(1H)-one]	51.5 nM	2600 nM
N#CCc1cc(Cl)c(Cl)c2[nH]c3c(c12)CC(=O)NCC3CCO (stereo not drawn) [Example 113, 2-(7,8-Dichloro-5-(2-hydroxyethyl)-2-oxo-1,2,3,4,5,6-hexahydroazepino[4,5-b]indol-10-yl)acetonitrile]	37.3 nM	1740 nM
N#CCc1cc(Cl)c(Cl)c2c1c1c3n2CCC3CNC(=O)C1 (stereo not drawn) [Example 114, 2-(8,9-Dichloro-2-oxo-2,3,4,4a, 5,6-hexahydro-1H-azepino[3,4,5-gh]benzo[b]pyrrolizin-11-yl)acetonitrile]	38.4 nM	1270 nM
N#CCOc1cc(Cl)c(Cl)c2c1c1c3n2CCC3CNC(=O)C1 (stereo not drawn) [Example 115, 2-((8,9-Dichloro-2-oxo-2,3,4,4a, 5,6-hexahydro-1H-azepino[3,4,5-gh]benzo[b]pyrrolizin-11-yl)oxy)acetonitrile]	22.4 nM	1950 nM
Cn1ncc(-c2cc(Cl)c(Cl)c3c2c2c4n3CCC4CNC(=O)C2)n1 (stereo not drawn) [Example 116, 8,9-Dichloro-11-(2-methyl-2H-1,2,3-triazol-4-yl)-1,3,4,4a, 5,6-hexahydro-2H-azepino[3,4,5-gh]benzo[b]pyrrolizin-2-one]	14.8 nM	640 nM
CN(C)C(=O)CC1CNC(=O)Cc2c1[nH]c1c(Cl)c(Cl)cc(CC#N)c21 (stereo not drawn) [Example 117, 2-(7,8-Dichloro-10-(cyanomethyl)-2-oxo-1,2,3,4,5,6-hexahydroazepino[4,5-b]indol-5-yl)-N,N-dimethylacetamide]	18.6 nM	1320 nM
CN(C)CCC1CNC(=O)Cc2c1[nH]c1c(Cl)c(Cl)cc(-c3cnn(C)n3)c21 (stereo not drawn) [Example 118, 7,8-Dichloro-5-(2-(dimethylamino)ethyl)-10-(2-methyl-2H-1,2,3-triazol-4-yl)-3,4,5,6-tetrahydroazepino[4,5-b]indol-2(1H)-one]	42.4 nM	577 nM
CC(O)CC1CNC(=O)Cc2c1[nH]c1c(Cl)c(Cl)cc(-c3cnn(C)n3)c21 (stereo not drawn) [Example 119, 7,8-Dichloro-5-(2-hydroxypropyl)-10-(2-methyl-2H-1,2,3-triazol-4-yl)-3,4,5,6-tetrahydroazepino[4,5-b]indol-2(1H)-one]	23.2 nM	487 nM
CC(O)CC1CNC(=O)Cc2c1[nH]c1c(Cl)c(Cl)cc(CC#N)c21 (stereo not drawn) [Example 120, 2-(7,8-Dichloro-5-(2-hydroxypropyl)-2-oxo-1,2,3,4,5,6-hexahydroazepino[4,5-b]indol-10-yl)acetonitrile]	11.9 nM	716 nM
Cn1c2c(c3c(CC#N)cc(Cl)c(Cl)c31)CC(=O)NCC2CCO (stereo not drawn) [Example 121, 2-(7,8-Dichloro-5-(2-hydroxyethyl)-6-methyl-2-oxo-1,2,3,4,5,6-hexahydroazepino[4,5-b]indol-10-yl)acetonitrile]	17.2 nM	180 nM
Cn1c2c(c3c(OCC#N)cc(Cl)c(Cl)c31)CC(=O)NCC2CCO (stereo not drawn) [Example 124, 2-((7,8-Dichloro-5-(2-hydroxyethyl)-6-methyl-2-oxo-1,2,3,4,5,6-hexahydroazepino[4,5-b]indol-10-yl)oxy)acetonitrile]	32.3 nM	468 nM
Cn1ncc(-c2cc(Cl)c(Cl)c3c2c2c(n3C)C(CCO)CNC(=O)C2)n1 (stereo not drawn) [Example 127, 7,8-Dichloro-5-(2-hydroxyethyl)-6-methyl-10-(2-methyl-2H-1,2,3-triazol-4-yl)-3,4,5,6-tetrahydroazepino[4,5-b]indol-2(1H)-one]	34.4 nM	1210 nM
CC1C(=O)NCC(C)(C)c2[nH]c3c(Cl)c(Cl)cc(NCCO)c3c21 (stereo not drawn) [Example 131, 7,8-Dichloro-10-((2-hydroxyethyl)amino)-1,5,5-trimethyl-3,4,5,6-tetrahydroazepino[4,5-b]indol-2(1H)-one]	53.3 nM	2720 nM
COCCNc1cc(Cl)c(Cl)c2c1c1c(n2C(F)F)CCNC(=O)C1C (stereo not drawn) [Example 141, 7,8-Dichloro-6-(difluoromethyl)-10-((2-methoxyethyl)amino)-1-methyl-3,4,5,6-tetrahydroazepino[4,5-b]indol-2(1H)-one]	35.4 nM	2440 nM
CC1C(=O)NCCc2c1c1c(NC(=O)CO)cc(Cl)c(Cl)c1n2C(F)F (stereo not drawn) [Example 144, N-(7,8-Dichloro-6-(difluoromethyl)-1-methyl-2-oxo-1,2,3,4,5,6-hexahydroazepino[4,5-b]indol-10-yl)-2-hydroxyacetamide]	22.5 nM	649 nM
CCC1CNC(=O)Cc2c1[nH]c1c(Cl)c(Cl)cc(-c3cnn(C)n3)c21 (stereo not drawn) [Example 162, 7,8-Dichloro-5-ethyl-10-(2-methyl-2H-1,2,3-triazol-4-yl)-3,4,5,6-tetrahydroazepino[4,5-b]indol-2(1H)-one]	48.7 nM	1280 nM
CCC1CNC(=O)Cc2c1[nH]c1c(Cl)c(Cl)cc(NCCO)c21 (stereo not drawn) [Example 163, 7,8-Dichloro-5-ethyl-10-((2-hydroxyethyl)amino)-3,4,5,6-tetrahydroazepino[4,5-b]indol-2(1H)-one]	23.1 nM	1620 nM
CCCC1CNC(=O)Cc2c1[nH]c1c(Cl)c(Cl)cc(-c3cnn(C)n3)c21 (stereo not drawn) [Example 164, 7,8-Dichloro-10-(2-methyl-2H-1,2,3-triazol-4-yl)-5-propyl-3,4,5,6-tetrahydroazepino[4,5-b]indol-2(1H)-one]	18.9 nM	1380 nM
CC1Cc2[nH]c3c(Cl)c(Cl)cc(NCCO)c3c2CC(=O)N1 (stereo not drawn) [Example 165, 7,8-Dichloro-10-((2-hydroxyethyl)amino)-4-methyl-3,4,5,6-tetrahydroazepino[4,5-b]indol-2(1H)-one]	44.2 nM	1730 nM
COC(=O)CC1CNC(=O)Cc2c1[nH]c1c(Cl)c(Cl)cc(CC#N)c21 (stereo not drawn) [Example 176, Methyl 2-(7,8-dichloro-10-(cyanomethyl)-2-oxo-1,2,3,4,5,6-hexahydroazepino[4,5-b]indol-5-yl)acetate]	38.9 nM	7110 nM
CC1C(=O)NCCc2[nH]c3c(Cl)c(Cl)cc(OC[C@H]4CCO4)c3c21 (stereo partly drawn) [Example 180, 7,8-Dichloro-1-methyl-10-(((R)-oxetan-2-yl)methoxy)-3,4,5,6-tetrahydroazepino[4,5-b]indol-2(1H)-one]	23.7 nM	793 nM
CC1C(=O)NCCc2[nH]c3c(Cl)c(Cl)cc(OC4COC4)c3c21 (stereo not drawn) [Example 183, 7,8-Dichloro-1-methyl-10-(oxetan-3-yloxy)-3,4,5,6-tetrahydroazepino[4,5-b]indol-2(1H)-one]	40.9 nM	1850 nM
